Experimental data reported in patent US20250081967A1, “PESTICIDALLY ACTIVE HETEROCYCLIC DERIVATIVES WITH SULFOXIMINE CONTAINING SUBSTITUENTS” (SYNGENTA CROP PROTECTION AG, priority 2021, published 2025).

Columns and labels:
Type in all cases: in vivo
Myzus persicae [1] = assay: Activity against Myzus persicae (green peach aphid), feeding/contact activity, sunflower leaf discs; conditions: Myzus persicae, foliar; for mortality at 200 ppm: 144 h, application rate 200 ppm, feeding/contact, 6 days after infestation
Description: Example B4: Activity Against Myzus persicae (Green Peach Aphid) Feeding/Contact Activity
Sunflower leaf discs were placed on agar in a 24-well microtiter plate and sprayed with aqueous test solutions prepared from 10′000 ppm DMSO stock solutions. After drying, the leaf discs were infested with an aphid population of mixed ages. The samples were assessed for mortality 6 days after infestation.

Spodoptera littoralis = assay: Activity against Spodoptera littoralis (Egyptian cotton leaf worm), cotton leaf discs; conditions: foliar, 72 h, application rate 200 ppm, L1 larvae, 3 days after infestation, read-out: control (mortality, anti-feeding effect or growth inhibition)
Description: Example B1: Activity Against Spodoptera littoralis (Egyptian Cotton Leaf Worm)
Cotton leaf discs were placed onto agar in 24-well microtiter plates and sprayed with aqueous test solutions prepared from 10′000 ppm DMSO stock solutions. After drying the leaf discs were infested with five L1 larvae. The samples were assessed for mortality, anti-feeding effect, and growth inhibition in comparison to untreated samples 3 days after infestation. Control of Spodoptera littoralis by a test sample is given when at least one of the categories mortality, anti-feedant effect, and growth inhibition is higher than the untreated sample.

Diabrotica balteata = assay: Activity against Diabrotica balteata (corn root worm), maize sprouts; conditions: for percent effect (mortality or growth inhibition) at 200 ppm: 96 h, application rate 200 ppm, L2 larvae, 4 days after infestation, read-out: effect in at least one of the two categories (mortality or growth inhibition)
Description: Example B3: Activity Against Diabrotica Balteata (Corn Root Worm)
Maize sprouts placed onto an agar layer in 24-well microtiter plates were treated with aqueous test solutions prepared from 10′000 ppm DMSO stock solutions by spraying. After drying, the plates were infested with L2 larvae (6 to 10 per well). The samples were assessed for mortality and growth inhibition in comparison to untreated samples 4 days after infestation.

Plutella xylostella = assay: Activity against Plutella xylostella (diamond back moth), artificial diet, eggs; conditions: 192 h, application rate 200 ppm, 8 days after infestation, read-out: effect in at least one of the two categories (mortality or growth inhibition)
Description: Example B9: Activity Against Plutella xylostella (Diamond Back Moth)
24-well microtiter plates with artificial diet were treated with aqueous test solutions prepared from 10′000 ppm DMSO stock solutions by pipetting. After drying, Plutella eggs were pipetted through a plastic stencil onto a gel blotting paper and the plate was closed with it. The samples were assessed for mortality and growth inhibition in comparison to untreated samples 8 days after infestation.

Myzus persicae [2] = assay: Activity against Myzus persicae (green peach aphid), systemic activity, pea seedlings; conditions: for mortality at 24 ppm: Myzus persicae
Description: Example B5: Activity Against Myzus persicae (Green Peach Aphid) Systemic Activity
Roots of pea seedlings infested with an aphid population of mixed ages were placed directly in the aqueous test solutions prepared from 10′000 DMSO stock solutions. The samples were assessed for mortality 6 days after placing seedlings in test solutions.

Bemisia tabaci = assay: Activity against Bemisia tabaci (cotton white fly), cotton leaf discs; conditions: foliar; for mortality at 200 ppm: 144 h, application rate 200 ppm, adult white flies, 6 days after incubation
Description: Example B6: Activity Against Bemisia tabaci (Cotton White Fly)
Cotton leaf discs were placed on agar in 24-well microtiter plates and sprayed with aqueous test solutions prepared from 10′000 ppm DMSO stock solutions. After drying the leaf discs were infested with adult white flies. The samples were checked for mortality 6 days after incubation.

Euschistus heros = assay: Activity against Euschistus heros (neotropical brown stink bug), soybean leaf; conditions: 120 h, application rate 200 ppm, N-2 nymphs, 5 days after infestation, read-out: effect in at least one of the two categories (mortality or growth inhibition)
Description: Example B7: Activity Against Euschistus heros (Neotropical Brown Stink Bug)
Soybean leaf on agar in 24-well microtiter plates were sprayed with aqueous test solutions prepared from 10′000 ppm DMSO stock solutions. After drying the leaf were infested with N-2 nymphs. The samples were assessed for mortality and growth inhibition in comparison to untreated samples 5 days after infestation.

[3] = 144 h, test rate 24 ppm, systemic, 6 days after placing seedlings in test solutions
[4] = Myzus persicae (systemic), concentration 24 ppm

Compound	mortality at 200 ppm (Myzus persicae [1]) [%]	percent control (mortality, anti-feedant effect or growth inhibition) at 200 ppm (Spodoptera littoralis) [%]	percent effect (mortality or growth inhibition) at 200 ppm (Diabrotica balteata) [%]	percent effect (mortality or growth inhibition) at 200 ppm (Plutella xylostella) [%]	mortality at 24 ppm (Myzus persicae [2]; [3]) [%]	mortality at 200 ppm (Bemisia tabaci) [%]	percent effect (mortality or growth inhibition) at 200 ppm (Euschistus heros) [%]	further results
CC[S@@](=N)(=O)c1cc(OC(C)(C)C#N)cnc1-c1nc2cc(C(F)(F)F)cnc2n1C [Compound P9-A, (R)-2-[[5-(ethylsulfonimidoyl)-6-[3-methyl-6-(trifluoromethyl)imidazo[4,5-b]pyridin-2-yl]-3-pyridyl]oxy]-2-methyl-propanenitrile]	≥ 80	≥ 80	≥ 80	≥ 80	≥ 80	≥ 80	–	mortality at 50 ppm (Diabrotica balteata; concentration 50 ppm): 80%; mortality at 24 ppm (Myzus persicae [2]; [4]): 100%
CC[S@](=N)(=O)c1cc(OC(C)(C)C#N)cnc1-c1nc2cc(C(F)(F)F)cnc2n1C [Compound P9-B, (S)-2-[[5-(ethylsulfonimidoyl)-6-[3-methyl-6-(trifluoromethyl)imidazo[4,5-b]pyridin-2-yl]-3-pyridyl]oxy]-2-methyl-propanenitrile]	≥ 80	≥ 80	≥ 80	≥ 80	≥ 80	≥ 80	–	mortality at 50 ppm (Diabrotica balteata; concentration 50 ppm): 100%; mortality at 24 ppm (Myzus persicae [2]; [4]): 100%
CCS(=N)(=O)c1cc(C2(C#N)CC2)ccc1-c1nc2cc(C(F)(F)F)cnc2n1C (single isomer, unassigned) [Compound P6-B, 1-[3-(ethylsulfonimidoyl)-4-[3-methyl-6-(trifluoromethyl)imidazo[4,5-b]pyridin-2-yl]phenyl]cyclopropanecarbonitrile]	–	≥ 80	–	≥ 80	–	–	–	Mortality (%) (Diabrotica balteata; concentration 50 ppm): 80%; Mortality (%) (Myzus persicae [2]; Myzus persicae (systemic), concentration 6 ppm): 100%
CCn1c(C(F)(F)F)cc2nc(-c3ncc(C4(C#N)CC4)cc3S(=N)(=O)CC)n(C)c2c1=O (single isomer, unassigned) [Compound P14-A, 1-[6-[5-ethyl-3-methyl-4-oxo-6-(trifluoromethyl)imidazo[4,5-c]pyridin-2-yl]-5-(ethylsulfonimidoyl)-3-pyridyl]cyclopropanecarbonitrile]	≥ 80	≥ 80	≥ 80	≥ 80	≥ 80	≥ 80	≥ 80	Mortality (%) (Diabrotica balteata; concentration 50 ppm): 80%
CCS(=N)(=O)c1cc(C2(C#N)CC2)cnc1-c1nc2cc(C(F)(F)F)nnc2n1C (racemic) [Compound P2, 1-[5-(ethylsulfonimidoyl)-6-[7-methyl-3-(trifluoromethyl)imidazo[4,5-c]pyridazin-6-yl]-3-pyridyl]cyclopropanecarbonitrile]	≥ 80	–	≥ 80	–	≥ 80	≥ 80	≥ 80	–
CCS(=N)(=O)c1cc(C2(C#N)CC2)cnc1-c1nc2cc(C(F)(F)F)n(OC)c(=O)c2n1C (single isomer, unassigned) [Compound P8-A, 1-[5-(ethylsulfonimidoyl)-6-[5-methoxy-3-methyl-4-oxo-6-(trifluoromethyl)imidazo[4,5-c]pyridin-2-yl]-3-pyridyl]cyclopropanecarbonitrile]	≥ 80	≥ 80	≥ 80	–	≥ 80	≥ 80	≥ 80	–
CCS(=N)(=O)c1cc(OC(C)(C)C#N)cnc1-c1nc2cc(C(F)(F)F)n(C3CC3)c(=O)c2n1C (single isomer, unassigned) [Compound P1-A, 2-[[6-[5-cyclopropyl-3-methyl-4-oxo-6-(trifluoromethyl)imidazo[4,5-c]pyridin-2-yl]-5-(ethylsulfonimidoyl)-3-pyridyl]oxy]-2-methyl-propanenitrile]	≥ 80	≥ 80	≥ 80	–	≥ 80	≥ 80	≥ 80	mortality at 50 ppm (Myzus persicae [1]; Myzus persicae (contact), concentration 50 ppm): 100%
CCS(=N)(=O)c1cc(OC(C)(C)C#N)c(C)nc1-c1nc2cc(C(F)(F)F)ncc2n1C (single isomer, unassigned) [Compound P17-B, 2-[[5-(ethylsulfonimidoyl)-2-methyl-6-[3-methyl-6-(trifluoromethyl)imidazo[4,5-c]pyridin-2-yl]-3-pyridyl]oxy]-2-methyl-propanenitrile]	–	≥ 80	–	–	–	–	≥ 80	–
CCS(=N)(=O)c1cc(OC(C)(C)C#N)cnc1-c1nc2cc(C(F)(F)F)nnc2n1C (single isomer, unassigned) [Compound P15-A, 2-[[5-(ethylsulfonimidoyl)-6-[7-methyl-3-(trifluoromethyl)imidazo[4,5-c]pyridazin-6-yl]-3-pyridyl]oxy]-2-methyl-propanenitrile]	≥ 80	≥ 80	≥ 80	≥ 80	≥ 80	≥ 80	–	mortality at 12.5 ppm (Diabrotica balteata; concentration 12.5 ppm): 80%
CCS(=N)(=O)c1cc(C2(C#N)CC2)ccc1-c1nc2cc(C(F)(F)F)ncc2n1C (single isomer, unassigned) [Compound P18-B, 1-[3-(ethylsulfonimidoyl)-4-[3-methyl-6-(trifluoromethyl)imidazo[4,5-c]pyridin-2-yl]phenyl]cyclopropanecarbonitrile]	–	–	–	–	–	–	≥ 80	mortality at 50 ppm (Diabrotica balteata; concentration 50 ppm): 100%; mortality at 12.5 ppm (Bemisia tabaci; concentration 12.5 ppm): 80%
CCS(=N)(=O)c1cc(C2(C#N)CC2)ccc1-c1nc2cc(C(F)(F)F)ncc2n1C (racemic) [Compound P18, 1-[3-(ethylsulfonimidoyl)-4-[3-methyl-6-(trifluoromethyl)imidazo[4,5-c]pyridin-2-yl]phenyl]cyclopropanecarbonitrile]	≥ 80	–	≥ 80	–	≥ 80	≥ 80	≥ 80	–
CCS(=N)(=O)c1cc(OC(C)(C)C#N)cnc1-c1cn2cnc(SC(F)(F)F)cc2n1 (single isomer, unassigned) [Compound P7-A, 2-[[5-(ethylsulfonimidoyl)-6-[7-(trifluoromethylsulfanyl)imidazo[1,2-c]pyrimidin-2-yl]-3-pyridyl]oxy]-2-methyl-propanenitrile]	≥ 80	≥ 80	≥ 80	–	≥ 80	≥ 80	≥ 80	mortality at 50 ppm (Bemisia tabaci; concentration 50 ppm): 80%
CCS(=N)(=O)c1cc(OC(C)(C)C#N)c(C)nc1-c1nc2cc(C(F)(F)F)cnc2n1C (single isomer, unassigned) [Compound P5-B, 2-[[5-(ethylsulfonimidoyl)-2-methyl-6-[3-methyl-6-(trifluoromethyl)imidazo[4,5-b]pyridin-2-yl]-3-pyridyl]oxy]-2-methyl-propanenitrile]	–	–	–	≥ 80	–	–	≥ 80	Mortality (%) (Diabrotica balteata; concentration 3.125 ppm): 100%; Mortality (%) (Myzus persicae [2]; [4]): 100%
